These results are taken from paper PMC9465062, “Exploring potential antidiabetic and anti-inflammatory flavonoids from Euphorbia humifusa with an integrated strategy” (Frontiers in Pharmacology, 2022).

Values joined by “and” are separate entries in the source; they are usually repeats but may differ in a detail not shown here. Identical values can stand only once. Like-named read-outs stand apart in the source and are kept apart here. Marks after values point to notes of the source that are not given here.

Experiment [1] is described as follows: DPPH free radical scavenging assay. To be noted: mean ± SD, n = 3. As to the method: (§1) The antioxidant activity of our samples was ascertained by evaluating their capacity to scavenge free radicals and reduce ferric ions. The DPPH and ABTS free radical scavenging assays were performed as per the method of Xu and his colleagues ([Xu et al., 2019]). Vit C, Trolox, and BHT were utilized as positive controls whereas pure methanol was for the blank control. The scavenging rate was calculated using the equation: Scavenging rate (%) =(A0 −AS)/A0× 100% With A 0 and As are ascribed to the absorbance value of the blank control, and the tested sample or positive control respectively. The results were expressed in IC50 values (n = 3, mean ± standard deviation).
(Loss of DPPH colour is used to gauge radical scavenging.)

In experiment [2] the target is α-glucosidase (α-Glu) (Saccharomyces cerevisiae, UniProt P53341). Description: Bio-affinity ultrafiltration UPLC/QTOF-MS with α-Glu. To be noted: SB = Aactive/Ainactive, ligands from EHNB.
Description: (§2) Concisely, 100 µL volume of EHNB sample was incubated with 40 µL COX-2 (8 units), or 100 µL α-Glu (6 units) active enzymes. Afterward, the mix solutions were incubated for 45 min and subsequently transferred to a centrifugal ultrafiltration vial 10 kDa cut-off filter membrane. They were initially centrifuged at 10,000 rpm for 10 min (25°C) to withdraw the extra solution followed by three successive centrifugations with 200 µL phosphate-buffered saline (PBS) to wash away the non-binding compounds. Finally, the fixed ligand candidates were fished out from the complex throughout enzyme denaturation with 200 μL of 70% (v/v) aqueous methanol before centrifugation (10,000 rpm, 10 min). The filtrates from three denaturation processes were gathered and dried on nitrogen blowing before reconstitution in 50 μL of aqueous methanol (50%, v/v) for further analytical analysis.
(§3) In this study, the high throughput ligand screening bio-affinity ultrafiltration UPLC/QTOF-MS targeting α-Glu and COX-2 has been utilized to fish out these key hypoglycemic and anti-inflammatory chemicals. […] Based on the comparison of peak areas of the chromatograms obtained from the sample incubated with the active enzyme and that of the denatured group, the relative binding of each candidate was assessed via the specific binding value calculated from the equation: Specific binding (SB)=Aactive/Ainactive
Experiment [3] has as its target T1, COX-2 (Homo sapiens, UniProt P35354).
T1 sequence (P35354 18-604): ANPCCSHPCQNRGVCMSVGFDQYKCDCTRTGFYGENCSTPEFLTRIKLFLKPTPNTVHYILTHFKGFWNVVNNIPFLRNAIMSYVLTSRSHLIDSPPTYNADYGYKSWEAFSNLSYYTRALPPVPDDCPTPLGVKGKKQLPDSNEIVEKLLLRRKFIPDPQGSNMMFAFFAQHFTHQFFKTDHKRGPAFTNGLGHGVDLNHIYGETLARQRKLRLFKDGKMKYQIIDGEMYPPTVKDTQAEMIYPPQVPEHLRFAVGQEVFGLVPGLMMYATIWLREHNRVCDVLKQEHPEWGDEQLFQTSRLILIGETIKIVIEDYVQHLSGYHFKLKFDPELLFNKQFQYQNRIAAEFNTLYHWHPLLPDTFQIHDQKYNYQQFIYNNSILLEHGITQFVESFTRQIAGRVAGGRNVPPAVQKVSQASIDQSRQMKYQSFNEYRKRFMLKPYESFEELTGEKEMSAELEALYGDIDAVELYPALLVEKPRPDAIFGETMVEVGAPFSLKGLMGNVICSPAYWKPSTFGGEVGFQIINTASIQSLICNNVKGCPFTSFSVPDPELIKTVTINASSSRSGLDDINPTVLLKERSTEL
Description: Bio-affinity ultrafiltration UPLC/QTOF-MS with COX-2. The note with it: SB = Aactive/Ainactive, ligands from EHNB.
Description: as §2, §3

Experiment [4] deals with T1, COX-2. Description: In vitro COX-2 inhibition assay (inhibitor screening kit). The arrangement: purchased Beyotime Biotechnology (Shanghai, China) S0168. Type of experiment: biochemical. As to the method: In brief, the working solutions including COX-2 cofactor, COX-2 enzyme solution, COX-2 substrate, and COX-2 probe were first prepared in accordance with the supplier manual, which were subsequently diluted ten times with the buffer kit assay. Thereafter, 150 µL Tris-HCl (pH 7.8), 10 µL of COX-2 cofactor, and 10 µL of work solution excluding the blank group were mixed in a 96 well black plate. […] After a 10 min incubation at 37°C, the reaction was initiated with 10 µL of COX-2 probe and 10 µL of COX-2 substrate. Finally, their relative fluorescence unit (RFU) was read from an excitation wavelength of 560 nm and an emission wavelength of 590 nm, after 20 min of incubation (37°C).
With RFU 100% enzyme , RFU sample , and RFU blank control represent the relative fluorescence value of the intact enzyme, samples and blank control respectively. The experiment was conducted in triplicates and the IC50 values were expressed into mean ± standard deviation.

A short description of experiment [5]: ABTS free radical scavenging assay. To be noted: mean ± SD, n = 3. As to the method:
as §1

Experiment [6] in a line: Ferric reducing antioxidant power (FRAP) assay. The note with it: mean ± SD, n = 3. The procedure: The ferric […] behavior using the ferric reducing antioxidant power (FRAP) assay was conducted based on a priorly reported method by our research group ([Rakotondrabe et al., 2022]).

Sequence of α-glucosidase (α-Glu) (P53341 whole entry): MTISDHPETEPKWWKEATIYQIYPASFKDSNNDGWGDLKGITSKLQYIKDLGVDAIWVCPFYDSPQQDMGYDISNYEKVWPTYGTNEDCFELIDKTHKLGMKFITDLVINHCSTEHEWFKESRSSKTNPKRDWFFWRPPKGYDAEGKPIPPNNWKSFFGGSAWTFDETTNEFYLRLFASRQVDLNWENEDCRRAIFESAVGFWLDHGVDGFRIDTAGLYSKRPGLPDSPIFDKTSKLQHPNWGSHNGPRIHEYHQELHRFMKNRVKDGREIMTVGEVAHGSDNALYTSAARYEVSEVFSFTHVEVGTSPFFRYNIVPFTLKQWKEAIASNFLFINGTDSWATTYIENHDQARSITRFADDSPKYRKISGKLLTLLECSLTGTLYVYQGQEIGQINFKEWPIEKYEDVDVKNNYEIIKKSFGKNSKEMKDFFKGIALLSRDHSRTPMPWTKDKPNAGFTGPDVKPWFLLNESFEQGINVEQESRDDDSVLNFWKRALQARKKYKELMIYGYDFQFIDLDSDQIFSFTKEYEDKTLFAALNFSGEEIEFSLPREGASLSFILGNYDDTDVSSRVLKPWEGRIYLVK

With `Cc1cc(C(C)(C)C)c(O)c(C(C)(C)C)c1` [BHT, butylated hydroxytoluene], the “IC50 DPPH” value in experiment [1] is 10.82 ± 0.37^c µg/ml.
Take `O=c1oc2c(O)c(O)cc3c(=O)oc4c(O)c(O)cc1c4c23` [Compound 4, Ellagic acid]: in experiment [2], the “α-Glu SB (specific binding)” value is 1.28. The “COX-2 SB (specific binding)” value in experiment [3] came to 1.05.
Broadly, the IC50 is the concentration that gives 50% inhibition. For the molecule `O=c1c(O[C@@H]2O[C@H](CO)[C@@H](O)[C@H](O)[C@H]2O)c(-c2ccc(O)cc2)oc2cc(O)cc(O)c12` [Compound 6, Astragalin (Kaempferol-3-O-glucoside)], the IC50 in experiment [4] (validation with pure compounds, Figure 6B, read-out: COX-2 IC50) was determined as 49.1 ± 1.49 µM. In experiment [2], the “α-Glu SB (specific binding)” value came to 1.32. For the same molecule, in experiment [3], the “COX-2 SB (specific binding)” value is 1.36.
`O=c1cc(-c2ccc(O)cc2)oc2c([C@@H]3O[C@H](CO)[C@@H](O)[C@H](O)[C@H]3O)c(O)cc(O)c12` [Compound 8, Vitexin (Apigenin 8-C-glucoside)] showed an IC50 in experiment [4] of 27.9 ± 1.74 µM. For the same molecule, the “α-Glu SB (specific binding)” value in experiment [2] stood at 1.26. Also, in experiment [3], the “COX-2 SB (specific binding)” value was found to be 1.32.
On to `Cc1c(C)c2c(c(C)c1O)CCC(C)(C(=O)O)O2` (centres unmarked) [Trolox], for which the “IC50 ABTS” value in experiment [5] is recorded as 6.15 ± 0.98^d µg/ml. Besides, the FRAP in experiment [6] was 1.79 ± 0.01 mM Fe^2+/g and 1.79 ± 0.01^b mM Fe^2+/g.
`O=C1O[C@H]([C@@H](O)CO)C(O)=C1O` [Vit C, ascorbic acid]: the “IC50 ABTS” value in experiment [5] was 4.18 ± 0.06^e µg/ml. In addition, the FRAP in experiment [6] was 2.04 ± 0.01 mM Fe^2+/g and 2.04 ± 0.01^a mM Fe^2+/g. In addition, the “IC50 DPPH” value in experiment [1] is on record as 3.35 ± 0.12^f µg/ml.
